According to ChEMBL document CHEMBL1128814, “Non-peptide neuropeptide y antagonists derived from the histamine H2 agonist arpromidine: Role of the guanidine group” (Bioorg Med Chem Lett, 1995):
The source made the active and inactive calls. The rule behind the calls is not given here.

Key:
[1] = target: Histamine H2 receptor (Cavia porcellus) (UniProt P47747); experiment: Histamine H2 receptor agonistic activity (positive chronotropism) was evaluated by the inhibition of histamine-stimulated contraction in guinea pig atrium; Inactive; format: functional, tissue-based; details: Cardiac atrium
Chain of Histamine H2 receptor (Cavia porcellus) (P47747 whole entry): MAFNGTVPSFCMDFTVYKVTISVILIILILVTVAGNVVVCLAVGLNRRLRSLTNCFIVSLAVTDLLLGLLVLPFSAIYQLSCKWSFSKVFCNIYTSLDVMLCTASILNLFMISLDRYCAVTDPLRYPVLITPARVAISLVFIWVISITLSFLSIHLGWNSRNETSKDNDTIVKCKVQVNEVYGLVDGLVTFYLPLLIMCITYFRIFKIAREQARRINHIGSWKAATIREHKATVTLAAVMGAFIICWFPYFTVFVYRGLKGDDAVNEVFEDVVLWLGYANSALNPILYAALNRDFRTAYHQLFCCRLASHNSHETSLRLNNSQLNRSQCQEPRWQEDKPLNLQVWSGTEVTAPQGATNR

[2] = target: Histamine H1 receptor (Cavia porcellus) (UniProt P31389); experiment: Antagonistic activity (H1 antagonism) evaluated by the inhibition of histamine-stimulated contraction in guinea pig ileum at a concentration of 1E-7 - 1E-4 M; format: functional, tissue-based
Chain of Histamine H1 receptor (Cavia porcellus) (P31389 whole entry): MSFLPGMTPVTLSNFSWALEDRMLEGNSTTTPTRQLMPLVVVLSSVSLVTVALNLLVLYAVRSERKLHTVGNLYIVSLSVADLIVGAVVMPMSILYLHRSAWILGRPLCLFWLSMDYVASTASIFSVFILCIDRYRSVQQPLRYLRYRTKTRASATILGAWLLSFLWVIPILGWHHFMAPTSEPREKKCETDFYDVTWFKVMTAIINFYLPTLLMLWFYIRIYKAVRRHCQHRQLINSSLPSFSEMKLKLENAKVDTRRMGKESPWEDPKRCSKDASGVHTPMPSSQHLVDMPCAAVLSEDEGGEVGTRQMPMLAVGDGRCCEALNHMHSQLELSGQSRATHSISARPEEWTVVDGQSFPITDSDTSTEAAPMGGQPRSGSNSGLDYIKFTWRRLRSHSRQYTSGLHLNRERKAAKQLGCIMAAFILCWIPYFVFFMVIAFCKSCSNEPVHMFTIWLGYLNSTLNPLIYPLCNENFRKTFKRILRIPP

[3] = target: T1, Neuropeptide Y receptor type 1 (Homo sapiens) (UniProt P25929); experiment: Tested for inhibition of NPY-induced increase in [Ca2+] at 100 uM concentration in human erythroleukemia cells; inactive; format: functional
T1 sequence (whole entry): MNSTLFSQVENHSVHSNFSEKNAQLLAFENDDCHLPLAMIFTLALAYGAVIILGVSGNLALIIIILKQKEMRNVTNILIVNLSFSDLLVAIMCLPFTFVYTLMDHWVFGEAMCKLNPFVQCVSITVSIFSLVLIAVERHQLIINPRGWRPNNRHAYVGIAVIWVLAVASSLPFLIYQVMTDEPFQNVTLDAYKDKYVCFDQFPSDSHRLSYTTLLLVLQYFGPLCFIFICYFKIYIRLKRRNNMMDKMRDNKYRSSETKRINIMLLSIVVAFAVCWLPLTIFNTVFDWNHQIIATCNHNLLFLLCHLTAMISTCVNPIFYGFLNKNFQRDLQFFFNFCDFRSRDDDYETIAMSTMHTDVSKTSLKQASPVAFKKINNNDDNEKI

[4] = target: Histamine H2 receptor (Cavia porcellus) (UniProt P47747); experiment: Intrinsic activity was evaluated against H2 receptor in guinea pig atrium; format: tissue-based; details: Cardiac atrium
[5] = target: Histamine H2 receptor (Cavia porcellus) (UniProt P47747); experiment: Histamine H2 receptor agonistic activity was evaluated by the inhibition of histamine-stimulated contraction in guinea pig atrium; format: functional, tissue-based; details: Cardiac atrium
[6] = target: T1, Neuropeptide Y receptor type 1 (Homo sapiens); experiment: Tested for inhibition of NPY-induced increase in [Ca2+] at 10 uM concentration in human erythroleukemia cells; inactive; format: functional
[7] = target: T1, Neuropeptide Y receptor type 1 (Homo sapiens); experiment: Tested for inhibition of NPY-induced increase in [Ca2+] at 100 uM concentration in human erythroleukemia cells; format: functional
[8] = target: T1, Neuropeptide Y receptor type 1 (Homo sapiens); experiment: Tested for inhibition of NPY-induced increase in [Ca2+] at 10 uM concentration in human erythroleukemia cells; format: functional
[9] = target: T1, Neuropeptide Y receptor type 1 (Homo sapiens); experiment: (§1) pA2 for inhibition of NPY-stimulated [Ca2+] mobilization in HEL cells; format: cell-based
[10] = target: T2, Neuropeptide Y receptor type 1 (Homo sapiens, UniProt P25929); experiment: as §1; format: functional, cell-based; details: read-out: pA2 (converted)
T2 sequence (P25929 whole entry): T1 sequence (whole entry)

[11] = target: Histamine H2 receptor (Cavia porcellus) (UniProt P47747); experiment: Intrinsic activity was evaluated in guinea pig atrium at a concentration of 1E-7 - 1E-4 M; format: tissue-based; details: Cardiac atrium
[12] = target: Histamine H2 receptor (Cavia porcellus) (UniProt P47747); experiment: Histamine H2 receptor […] activity (positive chronotropism) was evaluated by the inhibition of histamine-stimulated contraction in guinea pig atrium at a concentration of 1E-7 - 1E-4 M; format: functional, tissue-based; details: Cardiac atrium
[13] = target: T1, Neuropeptide Y receptor type 1 (Homo sapiens); experiment: Tested for inhibition of NPY-induced increase in [Ca2+] at 10 uM concentration in human erythroleukemia cells; Not determined; format: functional
[14] = target: Histamine H2 receptor (Cavia porcellus) (UniProt P47747); experiment: Intrinsic activity was evaluated against H2 receptor in guinea pig atrium at a concentration of 1E-7 - 1E-4 M; format: tissue-based; details: Cardiac atrium
[15] = target: T1, Neuropeptide Y receptor type 1 (Homo sapiens); experiment: Tested for inhibition of NPY-induced increase in [Ca2+] at 10 uM concentration in human erythroleukemia cells; Not determined; inactive; format: functional

SMILES | pKB [2] | Intrinsic activity [4] | pD2 [5] | inhibition [7] [%] | inhibition [8] [%] | further results
N=C(N)NCCC(c1ccc(F)cc1)c1ccccn1 (stereo unspecified) | 6.44 | – | – | – | – | pD2 [1]: inactive; inhibition [3]: inactive
CN/C(=N\CCC(c1ccc(Br)cc1)c1ccccn1)NCCCc1c[nH]cn1 (stereo unspecified) | 5.71 | 0.9 | 5.75 | 38 | – | inhibition [6]: inactive
CN/C(=N\CCCC(c1ccc(Cl)c(Cl)c1)c1ccccn1)NCCCc1c[nH]cn1 (stereo unspecified) | 6.16 | 1 | 5.58 | 41 | – | –
N=C(NCCCc1c[nH]cn1)NCCCC(c1ccc(Cl)c(Cl)c1)c1ccccn1 (stereo unspecified) | 7.46 | 1 | 6.67 | 78 | 31 | –
N=C(CCC(c1ccccc1)c1ccccn1)NCCCc1c[nH]cn1 (stereo unspecified) | 6.45 | 1 | 6.5 | 45 | – | –
c1ccc(C(CCC/N=C(/NCCCc2c[nH]cn2)NC2CCCCC2)c2ccccn2)cc1 (stereo unspecified) | 5.56 | 0.25 | 4.49 | 53 | 6 | –
N=C(NCCCc1c[nH]cn1)NCCC(c1ccc(F)cc1)c1ccccn1 (stereo unspecified) | 7.65 | 1 | 8.01 | 75 | 18 | –
Brc1ccc(C(CC/N=C(/NCCCc2c[nH]cn2)Nc2ccccc2)c2ccccn2)cc1 (stereo unspecified) | 5.81 | – | – | 76 | 24 | Intrinsic activity [11]: 1; pKB [12]: 5.14
N=C(CCCCc1c[nH]cn1)NCCC(c1ccc(F)cc1)c1ccccn1 (stereo unspecified) | 6.56 | 0.6 | 6.47 | 27 | 5 | –
Fc1ccc(C(CCCNCCCc2c[nH]cn2)c2ccccn2)cc1 (stereo unspecified) | 6.43 | 0.5 | 5.17 | 24 | – | –
Brc1ccc(C(CC/N=C(/NCCCc2c[nH]cn2)NC2CCCCC2)c2ccccn2)cc1 (stereo unspecified) | 5.42 | 0.65 | 4.69 | 82 | 36 | –
O=C(CCC(c1ccc(F)cc1)c1ccccn1)NCCCc1c[nH]cn1 (stereo unspecified) | 3.97 | – | < 3 | – | – | Intrinsic activity [14]: 1; inhibition [15]: inactive
N=C(NCCCc1c[nH]cn1)NCCC(c1ccc(Br)cc1)c1ccccn1 (stereo unspecified) | 6.92 | 1 | 7.48 | 85 | 27 | –
Cc1ccc(CC(CC/N=C(/NCCCc2c[nH]cn2)NC2CCCCC2)c2ccccn2)cc1 (stereo unspecified) | 5.4 | 1 | – | 75 | 24 | pKB [12]: 5.93
CCOC(=O)N/C(=N\CCC(c1ccc(F)cc1)c1ccccn1)NCCCc1c[nH]cn1 (stereo unspecified) | 5.3 | – | – | 4 | 2 | pD2 [1]: inactive

The next lines start with results.

pKB [2] | Intrinsic activity [4] | pD2 [5] | inhibition [7] [%] | inhibition [8] [%] | SMILES | further results
5.96 | 0.8 | 5.4 | 42 | – | CN(CCC(c1ccc(F)cc1)c1ccccn1)C(=N)NCCCc1c[nH]cn1 (stereo unspecified) | –
5.08 | 1 | 5.65 | 13 | – | CN/C(=N\CCC(c1ccc(F)cc1)c1ccccn1)NCCCc1c[nH]cn1 (stereo unspecified) | –
7.1 | 1 | 8.19 | 93 | 81 | N=C(NCCCc1c[nH]cn1)NCCC(c1ccc(Cl)c(Cl)c1)c1ccccn1 (stereo unspecified) | pKB [9]: 6.25
– | – | – | 13 | – | N#CN/C(=N\CCC(c1ccc(F)cc1)c1ccccn1)NCCCc1c[nH]cn1 (stereo unspecified) | pD2 [1]: inactive; inhibition [6]: inactive
6.56 | 1 | 8.05 | 62 | – | N=C(NCCCc1c[nH]cn1)NCCC(c1cc(F)cc(F)c1)c1ccccn1 (stereo unspecified) | Kb [10]: 37.2 µM
6.06 | 1 | 6.61 | 84 | 8 | N=C(NCCCc1c[nH]cn1)NCCCC(c1ccccc1)c1ccccn1 (stereo unspecified) | –
– | – | – | 62 | 2 | NC(=O)N/C(=N\CCC(c1ccc(F)cc1)c1ccccn1)NCCCc1c[nH]cn1 (stereo unspecified) | –
5.76 | 1 | 4.65 | 87 | – | Clc1ccc(C(CCC/N=C(/NCCCc2c[nH]cn2)NC2CCCCC2)c2ccccn2)cc1Cl (stereo unspecified) | inhibition [13]: 30%
7.01 | 1 | 7.39 | 69 | 2 | N=C(NCCCc1c[nH]cn1)NCCC(c1ccccc1)c1ccccn1 (stereo unspecified) | –
5.5 | – | – | 78 | – | Clc1ccc(C(CCC/N=C(/NCCCc2c[nH]cn2)Nc2ccccc2)c2ccccn2)cc1Cl (stereo unspecified) | Intrinsic activity [14]: 1; pKB [12]: 4.97; inhibition [13]: 48%
6.4 | 1 | 5.81 | – | 23 | Cc1ccc(CC(CC/N=C(\N)NCCCc2c[nH]cn2)c2ccccn2)cc1 (stereo unspecified) | –
